Data from BindingDB's records for doi:10.1016/s0960-894x(02)00084-7 (The University of Tokyo, 2002).

What was measured:
[1] = Inhibitory activity (RA1) against Prostaglandin G/H synthase 1 was calculated relative to aspirin
[2] = Inhibitory activity (RA2) against Prostaglandin G/H synthase 2 was calculated relative to aspirin

Work on `C[C@@]1(N2C(=O)c3ccccc3C2=O)CCC(=O)NC1=O` [2-((R)-3-Methyl-2,6-dioxo-piperidin-3-yl)-isoindole-1,3-dione] yielded a relative activity vs aspirin [1] of 0.29 and a relative activity vs aspirin [2] of 0.73.
For `Cc1cc(C)nc(-n2c(O)cc3ccccc3c2=O)n1` [2-(4,6-Dimethyl-pyrimidin-2-yl)-4H-isoquinoline-1,3-dione], the relative activity vs aspirin [1] was 3.85 and the relative activity vs aspirin [2] was 8.33.
`Cc1cc(C)nc(-n2c(O)cc3ccccc3c2=O)c1` [2-(4,6-Dimethyl-pyridin-2-yl)-4H-isoquinoline-1,3-dione] gave a relative activity vs aspirin [1] of 12.5 and a relative activity vs aspirin [2] of 6.67.
`Cc1cc(C)cc(N2C(=O)c3ccccc3C2=O)c1` [2-(3,5-Dimethyl-phenyl)-isoindole-1,3-dione] showed a relative activity vs aspirin [1] of 7.4 and a relative activity vs aspirin [2] of 13.2.
`COc1cc(C)nc(-n2c(O)cc3ccccc3c2=O)n1` [2-(4-Methoxy-6-methyl-pyrimidin-2-yl)-4H-isoquinoline-1,3-dione] showed a relative activity vs aspirin [1] of 21.7 and a relative activity vs aspirin [2] of 10.
For `O=C1NCCCC1N1C(=O)c2ccccc2C1=O` (centres undefined) [2-(2-Oxo-piperidin-3-yl)-isoindole-1,3-dione], the relative activity vs aspirin [1] was 0.85 and the relative activity vs aspirin [2] was 1.21.
`C[C@@]1(N2C(=O)c3ccc(N)cc3C2=O)CCC(=O)NC1=O` [5-Amino-2-((R)-3-methyl-2,6-dioxo-piperidin-3-yl)-isoindole-1,3-dione] showed a relative activity vs aspirin [1] of 0.12.
For `Cc1cc(C)cc(-n2c(O)cc3ccccc3c2=O)c1` [2-(3,5-Dimethyl-phenyl)-4H-isoquinoline-1,3-dione], the relative activity vs aspirin [1] was 95.2 and the relative activity vs aspirin [2] was 38.5.
With `COc1cc(OC)nc(-n2c(O)cc3ccccc3c2=O)n1` [2-(4,6-Dimethoxy-pyrimidin-2-yl)-4H-isoquinoline-1,3-dione] the relative activity vs aspirin [1] was 10.2 and the relative activity vs aspirin [2] was 3.57.
Molecule `O=C1c2ccccc2C(=O)N1c1c[nH]c(=O)[nH]c1=O` [2-(2,4-Dioxo-1,2,3,4-tetrahydro-pyrimidin-5-yl)-isoindole-1,3-dione] has a relative activity vs aspirin [1] of 0.44 and a relative activity vs aspirin [2] of 3.81.
Work on `C[C@@]1(N2C(=O)c3cccc(N)c3C2=O)CCC(=O)NC1=O` [4-Amino-2-((R)-3-methyl-2,6-dioxo-piperidin-3-yl)-isoindole-1,3-dione] yielded a relative activity vs aspirin [1] of 0.17.
With `Cc1cc(C)c(C)c(N2C(=O)c3ccccc3C2=O)c1C` [2-(2,3,5,6-Tetramethyl-phenyl)-isoindole-1,3-dione] the relative activity vs aspirin [1] was 0.2 and the relative activity vs aspirin [2] was 0.67.
With `O=C1c2ccccc2C(=O)N1CCn1ccc(=O)[nH]c1=O` [2-[2-(2,4-Dioxo-3,4-dihydro-2H-pyrimidin-1-yl)-ethyl]-isoindole-1,3-dione] the relative activity vs aspirin [1] was 1.23 and the relative activity vs aspirin [2] was 0.65.
Molecule `Cc1cc(C)c(C)c(N2C(=O)c3ccccc3C2=O)c1` [2-(2,3,5-Trimethyl-phenyl)-isoindole-1,3-dione] has a relative activity vs aspirin [1] of 0.33 and a relative activity vs aspirin [2] of 1.18.
`C[C@@]1(N2C(=O)c3cccc([N+](=O)[O-])c3C2=O)CCC(=O)NC1=O` [2-((R)-3-Methyl-2,6-dioxo-piperidin-3-yl)-4-nitro-isoindole-1,3-dione] gave a relative activity vs aspirin [1] of 0.4 and a relative activity vs aspirin [2] of 0.1.
Work on `O=C1CCN(N2C(=O)c3ccccc3C2=O)C(=O)N1` [2-(2,4-Dioxo-tetrahydro-pyrimidin-1-yl)-isoindole-1,3-dione] yielded a relative activity vs aspirin [1] of 0.6 and a relative activity vs aspirin [2] of 0.9.
For `C[C@@]1(N2C(=O)c3ccc([N+](=O)[O-])cc3C2=O)CCC(=O)NC1=O` [2-((R)-3-Methyl-2,6-dioxo-piperidin-3-yl)-5-nitro-isoindole-1,3-dione], the relative activity vs aspirin [1] was 0.54 and the relative activity vs aspirin [2] was 1.51.
For `O=C1CCC(N2C(=O)c3ccccc3C2=O)C(=O)N1` (racemic) [(+/-)-thalidomide], the relative activity vs aspirin [1] was 0.37 and the relative activity vs aspirin [2] was 0.5.
